Measurements: US8563609B2, “Nitro fatty acids - neuroprotection and/or inhibition of cognitive decline” (Nitromega Corp., priority 2010, dated 2013)

Key:
[1] = test system: Abeta-mediated changes in membrane trafficking; assay: exocytosis (formazan membrane trafficking) assay with Abeta oligomers in mature primary neuronal cultures; format: cell-based, rat; conditions: for amyloid beta (Abeta) in intracellular vesicles (figure legend): exocytosis assay, mature primary neuronal cultures grown for 3 weeks in vitro
From the text: Abeta oligomer preparations: Human amyloid peptide 1-42 was obtained from a variety of commercial sources, with lot-choice contingent upon quality control analysis. Abeta 1-42 oligomers made according to published methods or isolated from human brain tissue served as positive controls. Toxicity was monitored in each image-based assay via quantification of nuclear morphology visualized with the DNA binding dye DAPI. Nuclei that were fragmented were considered to be in late stage apoptosis. Peptide lots producing unusual peptide size ranges or significant toxicity at standard concentrations on neurons were rejected.
Image Processing: Images are captured and analyzed with the Cellomics VTI automated microscope platform. For statistical analysis, a Tukey-Kramer pair-wise comparison with unequal variance is used.
A primary neuron-based functional screening assay to detect small molecule Abeta oligomer blockers: Primary rat neurons grown for at least 3 weeks in vitro were chosen as the basis for this screening assay. […] More complex systems such as acute or organotypic brain slices are very useful but not amenable to high throughput screening. […] For this reason, primary neuronal cultures were chosen because of their ability to be used in high throughput screens and fidelity to what occurs in vivo.
Measuring membrane trafficking rate changes induced by oligomers via formazan morphological shifts has been used in cell lines to discover Abeta oligomer-blocking drugs.
Yellow tetrazolium salts are endocytosed by cells and reduced to insoluble purple formazan in the endosomal pathway. The level of purple formazan is a reflection of the number of actively metabolizing cells in culture, and reduction in the amount of formazan was taken as a measure of cell death or metabolic toxicity in culture as well as an indicator of membrane trafficking
The exocytosis assay was adapted for use with mature primary neuronal cultures grown for 3 weeks in vitro.

[2] = test system: motor neurons; assay: motor neuron astrocyte coculture, in vitro model of ALS (SOD G93A astrocytes); format: cell-based, mice
Experimental: Recent studies have shown that nitro-arachidonic acid can have protective effects compared with native arachidonic acid in an in vitro model of ALS. This model is based on astrocyte-induced motoneuron toxicity induced by a mutation in CuZn SOD (SOD1).
Briefly, motor neuron astrocytes cocultures were made.
FIG. 2 illustrates the results of these experiments. Native arachidonic acid (AA) at 3 μM and 5 μM had no effect on the motor neuron survival compared with control.

[3] = 900 mgs per day oral, six months; cited from earlier work
[4] = primary neuronal cultures grown for 3 weeks in vitro, Abeta oligomers

Compound: CCCCCCCC/C=C\CCCCCCCC(=O)O [oleic acid]
- EC50 ([1]; Rattus norvegicus, 504 h, primary neuronal cultures grown for 3 weeks in vitro, Abeta oligomers, read-out: EC50, inhibition of oligomer effects on membrane trafficking): 2080 nM
- amyloid beta (Abeta) in intracellular vesicles (figure legend) [1]: dose-dependent decrease

Compound: C[C@]12N[C@H](Cc3ccccc31)c1ccccc12 [MK-801]
- block of Abeta oligomer effects on membrane trafficking (active / not active) [1, 4]: none were active

Compound: C[N+](C)(C)CCCCCC[N+](C)(C)C [hexamethonium bromide]
- block of Abeta oligomer effects on membrane trafficking (active / not active) [1, 4]: none were active

Compound: nitro-arachidonic acid
- motor neuron survival compared with control / mutant astrocyte induced motor neuron death ([2]; 3 μM): inhibited mutant astrocyte induced motor neuron death
- motor neuron survival compared with control / mutant astrocyte induced motor neuron death ([2]; 5 μM): inhibited mutant astrocyte induced motor neuron death
- motorneuron death caused by co-culture with astrocytes containing a mutation in SOD1 (SOD G93A) ([2]; incubated for 24 hours with wild type motor neurons): limited motorneuron death

Compound: CC/C=C\C/C=C\C/C=C\C/C=C\C/C=C\C/C=C\CCC(=O)O [DHA, docosahexaenoic acid]
- tolerability [3]: well-tolerated

Compound: O[C@H]1[C@H](O)[C@@H](O)[C@H](O)[C@@H](O)[C@@H]1O [scyllo-inositol]
- block of Abeta oligomer effects on membrane trafficking (active / not active) [1, 4]: none were active

Compound: Nitro-oleic acid
- amyloid beta (Abeta) in intracellular vesicles (figure legend) [1]: dose-dependent decrease
- block of Abeta oligomer effects on membrane trafficking (active / not active) [1, 4]: little statistically relevant effect on membrane trafficking

Compound: CCCCC/C=C\C/C=C\C/C=C\C/C=C\CCCC(=O)O [arachidonic acid]
- motor neuron survival compared with control / mutant astrocyte induced motor neuron death ([2]; 3 μM): no effect
- motor neuron survival compared with control / mutant astrocyte induced motor neuron death ([2]; 5 μM): no effect
